Patent publication US11931424B2, “Combination MCL-1 inhibitors with anti-body drug conjugates” (Gilead Sciences, Inc., priority 2021, dated 2024)
Counter-ions that a name gives are not always drawn.

Legend:
[1] = tested on: panel of breast cancer cell lines; assay: Compound A with targeted agents and chemotherapies, 72-hour in vitro proliferation assays; assay type: cell-based; details: 72-hour proliferation
[2] = tested on: panel of haematalogical cancer cell lines; assay: Compound A with BTK inhibitors, 72-hour in vitro proliferation assays; assay type: cell-based; details: combination Compound A × listed BTK inhibitor, 72-hour proliferation

For `CC/C(=C(\c1ccccc1)c1ccc(OCCN(C)C)cc1)c1ccccc1` [Tamoxifen Citrate], the “Best CI” value ([1]; AU565 cell line, compound A × partner) was 0.63, the “Best CI” value ([1]; BT-20 cell line, compound A × partner) was 1.22 and the “Best CI” value ([1]; BT-474 cell line, compound A × partner) was 0.67. For the same molecule, the “Best CI” value ([1]; BT-549 cell line, compound A × partner) was 0.42, the “Best CI” value ([1]; CAL-51 cell line, compound A × partner) was 1.06 and the “Best CI” value ([1]; CAL-85-1 cell line, compound A × partner) was 0.49. For the same molecule, the “Best CI” value ([1]; CAL-148 cell line, compound A × partner) was 0.69, the “Best CI” value ([1]; CAMA-1 cell line, compound A × partner) was 0.27 and the “Best CI” value ([1]; DU-4475 cell line, compound A × partner) was 0.80. For the same molecule, the “Best CI” value ([1]; EVSA-T cell line, compound A × partner) was 0.68, the “Best CI” value ([1]; HCC38, compound A × partner) was 0.98 and the “Best CI” value ([1]; HCC70, compound A × partner) was 0.50. For the same molecule, the “Best CI” value ([1]; HCC1143, compound A × partner) was 0.19, the “Best CI” value ([1]; HCC1569, compound A × partner) was 0.50 and the “Best CI” value ([1]; HCC1806, compound A × partner) was 0.84. For the same molecule, the “Best CI” value ([1]; HCC1937, compound A × partner) was 1.02, the “Best CI” value ([1]; HCC1954, compound A × partner) was 0.18 and the “Best CI” value ([1]; HCC2218, compound A × partner) was 0.45. For the same molecule, the “Best CI” value ([1]; HDQ-P1, compound A × partner) was 0.94, the “Best CI” value ([1]; HMC-1-8, compound A × partner) was 0.58 and the “Best CI” value ([1]; JIMT-1, compound A × partner) was 0.38. The “Best CI” value ([1]; KPL-1, compound A × partner) was 0.54, the “Best CI” value ([1]; MCF7 cells, Compound A × partner agent) was 0.41 and the “Best CI” value ([1]; MDA-MB-175-VII cells, Compound A × partner agent) was 0.36. For the same molecule, the “Best CI” value ([1]; MDA-MB-231 cells, Compound A × partner agent) was 1.06, the “Best CI” value ([1]; MDA-MB-361 cells, Compound A × partner agent) was 0.48 and the “Best CI” value ([1]; MDA-MB-436 cells, Compound A × partner agent) was 0.30. The “Best CI” value ([1]; MDA-MB-453 cells, Compound A × partner agent) was 0.45, the “Best CI” value ([1]; MDA-MB-468 cells, Compound A × partner agent) was 0.61 and the “Best CI” value ([1]; SK-BR-3 cells, combination of compound A with the named agent) was 0.66. For the same molecule, the “Best CI” value ([1]; SUM159PT cells, combination of compound A with the named agent) was 0.20, the “Best CI” value ([1]; T47D cells, combination of compound A with the named agent) was 0.42 and the “Best CI” value ([1]; ZR-75-1 cells, combination of compound A with the named agent) was 0.99. The “Best CI” value ([1]; ZR-75-30 cells, combination of compound A with the named agent) was 1.00.

With `CC#CC(=O)N1CC[C@@H](n2c(=O)n(-c3ccc(Oc4ccccc4)cc3)c3c(N)ncnc32)C1` [Tirabrutinib] the “Best CI” value ([2]; HBL-1 cells) was 0.06, the “Best CI Level” value ([2]; HBL-1 cells) was 60 and the “Bliss Volume” value ([2]; HBL-1 cells) was 3.09. The “HSA volume” value ([2]; HBL-1 cells) was 8.94, the “Loewe Volume” value ([2]; HBL-1 cells) was 8.17 and the “Synergy Score” value ([2]; HBL-1 cells) was 7.02. For the same molecule, the “Best CI” value ([2]; OCI-Ly10 cells) was 0.63, the “Best CI Level” value ([2]; OCI-Ly10 cells) was 80 and the “Bliss Volume” value ([2]; OCI-Ly10 cells) was 0.21. For the same molecule, the “HSA volume” value ([2]; OCI-Ly10 cells) was 3.22, the “Loewe Volume” value ([2]; OCI-Ly10 cells) was 1.63 and the “Synergy Score” value ([2]; OCI-Ly10 cells) was 2.72. For the same molecule, the “Best CI” value ([2]; SU-DHL-2 cells) was 0.42, the “Best CI Level” value ([2]; SU-DHL-2 cells) was 20 and the “Bliss Volume” value ([2]; SU-DHL-2 cells) was 0.39. The “HSA volume” value ([2]; SU-DHL-2 cells) was −0.97, the “Loewe Volume” value ([2]; SU-DHL-2 cells) was 1.23 and the “Synergy Score” value ([2]; SU-DHL-2 cells) was 0.98. For the same molecule, the “Best CI” value ([2]; SU-DHL-4 cells) was 0.84, the “Best CI Level” value ([2]; SU-DHL-4 cells) was 20 and the “Bliss Volume” value ([2]; SU-DHL-4 cells) was 1.52. For the same molecule, the “HSA volume” value ([2]; SU-DHL-4 cells) was −2.97, the “Loewe Volume” value ([2]; SU-DHL-4 cells) was −0.81 and the “Synergy Score” value ([2]; SU-DHL-4 cells) was 1.10. The “Best CI” value ([2]; SU-DHL-8 cells) was 0.45, the “Best CI Level” value ([2]; SU-DHL-8 cells) was 20 and the “Bliss Volume” value ([2]; SU-DHL-8 cells) was 4.13. The “HSA volume” value ([2]; SU-DHL-8 cells) was −6.01, the “Loewe Volume” value ([2]; SU-DHL-8 cells) was −3.72 and the “Synergy Score” value ([2]; SU-DHL-8 cells) was 0.60. For the same molecule, the “Best CI” value ([2]; TMD8 cells) was 0.87, the “Best CI Level” value ([2]; TMD8 cells) was 20 and the “Bliss Volume” value ([2]; TMD8 cells) was 1.28. The “HSA volume” value ([2]; TMD8 cells) was 3.05, the “Loewe Volume” value ([2]; TMD8 cells) was 1.96 and the “Synergy Score” value ([2]; TMD8 cells) was 2.92. The “Best CI” value ([2]; U-2932 cells) was 0.62, the “Best CI Level” value ([2]; U-2932 cells) was 65 and the “Bliss Volume” value ([2]; U-2932 cells) was 1.92. The “HSA volume” value ([2]; U-2932 cells) was 4.85, the “Loewe Volume” value ([2]; U-2932 cells) was 4.66 and the “Synergy Score” value ([2]; U-2932 cells) was 3.69.
